# According to patent US20240336601A1 (Chulalongkorn University, priority 2020, published 2024):
# What was measured:
# [1] = biological target: interaction between PD-1 and PD-L1 (Homo sapiens, UniProt Q9NZQ7); assay: PD-1/PD-L1 protein-protein interaction assay (ALPHA); assay type: binding; conditions: 2 nM His-tagged human PD-L1, 0.6 nM PD-1-Fc, AlphaScreen
# [2] = biological target: T1, PD-1/PD-L1 interaction (Homo sapiens, UniProt Q9NZQ7); assay: PD-1/PD-L1 blockage cell-based bioassay (Jurkat NFAT luciferase / CHO-PDL1 co-culture); conditions: Jurkat NFAT cells co-cultured with CHO-PDL1 cells, 6 h, luminescence
# T1 construct: expressed in transfected cells
# T1 sequence (Q9NZQ7 19-290): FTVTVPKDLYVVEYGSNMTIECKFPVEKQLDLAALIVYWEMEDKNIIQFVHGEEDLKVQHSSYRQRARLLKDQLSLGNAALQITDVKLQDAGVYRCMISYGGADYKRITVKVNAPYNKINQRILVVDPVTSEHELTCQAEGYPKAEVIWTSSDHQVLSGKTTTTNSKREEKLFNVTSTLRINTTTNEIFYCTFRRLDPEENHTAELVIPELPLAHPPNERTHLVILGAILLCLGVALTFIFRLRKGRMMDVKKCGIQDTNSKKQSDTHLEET
# Experimental: PD-1/PD-L1 Blockage Cell-Based Bioassay
# Jurkat T cells expressing human PD-1 and luciferase gene reporter driven by TCR-mediated NFAT response element (Jurkat NFAT) were co-cultured with CHO-kl cells expressing human PD-L1 and surface-bound TCR activator (CHO-PDL1). […] CHO-PDL1 cells (20,000 cells/well) were seeded overnight. Compounds were added on CHO-PDL1 and incubated for 2 h at 37° C. Jurkat NFAT cells (20,000 cells/well) were diluted in RPMI assay medium (RPMI1640 with 1% FBS) and added into each well. After co-incubation for 6 h at 37° C., luminescence was determined by adding Bio-Glo™ Luciferase reagent (Promega) and measured with a luminescence plate reader. EC50 values were calculated from the four-parameter concentration-response curves.
# interaction between PD-1 and PD-L1, sequence (Q9NZQ7 19-238 limits assumed): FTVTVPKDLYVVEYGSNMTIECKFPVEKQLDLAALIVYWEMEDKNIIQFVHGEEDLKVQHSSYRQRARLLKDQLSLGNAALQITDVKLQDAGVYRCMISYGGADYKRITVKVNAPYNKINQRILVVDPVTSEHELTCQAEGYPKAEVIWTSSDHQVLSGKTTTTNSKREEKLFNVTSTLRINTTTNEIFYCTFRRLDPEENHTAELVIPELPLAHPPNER
SMILES,IC50 [1],IC50 [2]
"COc1cc(-n2ccc3c(-c4cccc5c4ccn5-c4cc(OC)c(CNC[C@@H]5CCC(=O)N5)c(OC)c4)cccc32)cc(OC)c1CNC[C@@H]1CCC(=O)N1 [Example 64, (5S,5′S)-5,5′-((((1H,1′H-[4,4′-biindole]-1,1′-diylbis(2,6-dimethoxy-4,1-phenylene))bis(methylene))bis(azanediyl))bis(methylene))bis(pyrrolidin-2-one)]",1 to 10 nM,> 2000 nM
"COc1cc(-n2ccc3c(-c4cccc(-c5cnc(CNC[C@@H]6CCC(=O)N6)c(OC)n5)c4Cl)cccc32)cc(OC)c1CNC[C@@H]1CCC(=O)N1 [Example 65, (S)-5-((((5-(2-chloro-3-(1-(3,5-dimethoxy-4-(((((S)-5-oxopyrrolidin-2-yl)methyl)amino)methyl)phenyl)-1H-indol-4-yl)phenyl)-3-methoxypyrazin-2-yl)methyl)amino)methyl)pyrrolidin-2-one]",1 to 10 nM,201 to 2000 nM
"COc1cc(-n2ncc3c(-c4cccc(-c5ccc(CNC[C@@H]6CCC(=O)N6)c(OC)n5)c4Cl)cccc32)cc(OC)c1CNCC1(C(=O)O)CC1 [Example 66, (S)-1-(((4-(4-(2-chloro-3-(6-methoxy-5-((((5-oxopyrrolidin-2-yl)methyl)amino)methyl)pyridin-2-yl)phenyl)-1H-indazol-1-yl)-2,6-dimethoxybenzyl)amino)methyl)cyclopropanecarboxylic acid]",< 1 nM,< 200 nM
"COc1cc(-n2ccc3c(-c4cccc(NC(=O)c5nc6c(s5)CN(C)CC6)c4C)cccc32)cc(OC)c1CNC[C@@H]1CCC(=O)N1 [Example 67, (S)—N-(3-(1-(3,5-dimethoxy-4-((((5-oxopyrrolidin-2-yl)methyl)amino)methyl)phenyl)-1H-indol-4-yl)-2-methylphenyl)-5-methyl-4,5,6,7-tetrahydrothiazolo[5,4-c]pyridine-2-carboxamide]",1 to 10 nM,> 2000 nM
"COc1cc(-n2ncc3c(-c4cccc(-c5ccc(CNC[C@H]6C[C@@H](O)C6)c(OC)n5)c4Cl)cccc32)cc(OC)c1CN1CC(C)(O)C1 [Example 68, 1-(4-(4-(2-chloro-3-(5-((((cis-3-hydroxycyclobutyl)methyl)amino)methyl)-6-methoxypyridin-2-yl)phenyl)-1H-indazol-1-yl)-2,6-dimethoxybenzyl)-3-methylazetidin-3-ol]",< 1 nM,< 200 nM
"COc1cc(-n2ccc3c(-c4cccc(-c5ccc(CN6CC(C)(C(=O)O)C6)c(OC)n5)c4Cl)ccnc32)cc(OC)c1CNC[C@@H]1CCC(=O)N1 [Example 70, (S)-1-((6-(2-chloro-3-(1-(3,5-dimethoxy-4-((((5-oxopyrrolidin-2-yl)methyl)amino)methyl)phenyl)-1H-pyrrolo[2,3-b]pyridin-4-yl)phenyl)-2-methoxypyridin-3-yl)methyl)-3-methylazetidine-3-carboxylic acid]",1 to 10 nM,> 2000 nM
"COc1cc(-n2ncc3c(-c4cccc(-c5ccc(C6=NCCN6)c(OC)n5)c4Cl)cccc32)cc(OC)c1CNC[C@@H]1CCC(=O)N1 [Example 74, (S)-5-(((4-(4-(2-chloro-3-(5-(4,5-dihydro-1H-imidazol-2-yl)-6-methoxypyridin-2-yl)phenyl)-1H-indazol-1-yl)-2,6-dimethoxybenzyl)amino)methyl)pyrrolidin-2-one]",< 1 nM,< 200 nM
"COc1cc(-n2ncc3c(-c4cccc(-c5ccc(C6=NCCN6)c(OC)n5)c4Cl)cccc32)cc(OC)c1CN1CC2(CNC(=O)C2)C1 [Example 76, 2-(4-(4-(2-chloro-3-(5-(4,5-dihydro-1H-imidazol-2-yl)-6-methoxypyridin-2-yl)phenyl)-1H-indazol-1-yl)-2,6-dimethoxybenzyl)-2,6-diazaspiro[3.4]octan-7-one]",< 1 nM,< 200 nM
"COc1cc(-n2ncc3c(-c4cccc(-c5ccc(C6=NCCN6)c(OC)n5)c4Cl)cccc32)cc(OC)c1CNC[C@H]1C[C@@H](O)C1 [Example 77, cis-3-(((4-(4-(2-chloro-3-(5-(4,5-dihydro-1H-imidazol-2-yl)-6-methoxypyridin-2-yl)phenyl)-1H-indazol-1-yl)-2,6-dimethoxybenzyl)amino)methyl)cyclobutanol]",< 1 nM,201 to 2000 nM
"COc1cc(-n2ncc3c(-c4cccc(-c5ccc(CN6CC7(CNC(=O)C7)C6)c(OC)n5)c4Cl)cccc32)cc(OC)c1CN1CC(C)(O)C1 [Example 79, 2-((6-(2-chloro-3-(1-(4-((3-hydroxy-3-methylazetidin-1-yl)methyl)-3,5-dimethoxyphenyl)-1H-indazol-4-yl)phenyl)-2-methoxypyridin-3-yl)methyl)-2,6-diazaspiro[3.4]octan-7-one]",< 1 nM,< 200 nM
"COc1cc(-n2ccc3c(-c4cccc(-c5ccc(CNC[C@H]6C[C@@H](O)C6)c(OC)n5)c4Cl)cccc32)cc(OC)c1CNC[C@@H]1CCC(=O)N1 [Example 82, (S)-5-(((4-(4-(2-chloro-3-(5-((((cis-3-hydroxycyclobutyl)methyl)amino)methyl)-6-methoxypyridin-2-yl)phenyl)-1H-indol-1-yl)-2,6-dimethoxybenzyl)amino)methyl)pyrrolidin-2-one]",1 to 10 nM,201 to 2000 nM
"COc1cc(-n2ccc3c(-c4cccc(-c5ccc(CNC[C@@H]6CCC(=O)N6)c(OC)n5)c4Cl)cccc32)cc(OC)c1CN1CC[C@H](O)C1 [Example 83, (S)-5-((((6-(2-chloro-3-(1-(4-(((S)-3-hydroxypyrrolidin-1-yl)methyl)-3,5-dimethoxyphenyl)-1H-indol-4-yl)phenyl)-2-methoxypyridin-3-yl)methyl)amino)methyl)pyrrolidin-2-one]",1 to 10 nM,201 to 2000 nM
"COc1cc(-n2ccc3c(-c4cccc(-c5ccc(CN6CC(C)(O)C6)c(OC)n5)c4Cl)cccc32)cc(OC)c1CN1CC2(CNC(=O)C2)C1 [Example 84, 2-(4-(4-(2-chloro-3-(5-((3-hydroxy-3-methylazetidin-1-yl)methyl)-6-methoxypyridin-2-yl)phenyl)-1H-indol-1-yl)-2,6-dimethoxybenzyl)-2,6-diazaspiro[3.4]octan-7-one]",< 1 nM,201 to 2000 nM
"COc1cc(N2CCc3c(-c4cccc(-c5nc6c(s5)CNCC6)c4C)cccc32)cc(OC)c1CNC[C@@H]1CCC(=O)N1 [Example 85, (S)-5-(((2,6-dimethoxy-4-(4-(2-methyl-3-(4,5,6,7-tetrahydrothiazolo[5,4-c]pyridin-2-yl)phenyl)indolin-1-yl)benzyl)amino)methyl)pyrrolidin-2-one]",10 to 100 nM,> 2000 nM
"COc1cc(-n2ncc3c(-c4cccc(-c5ccc(CN6CC[C@@H](O)C6)c(OC)n5)c4Cl)cccc32)cc(OC)c1CNC[C@@H]1CCC(=O)N1 [Example 87, (S)-5-(((4-(4-(2-chloro-3-(5-(((R)-3-hydroxypyrrolidin-1-yl)methyl)-6-methoxypyridin-2-yl)phenyl)-1H-indazol-1-yl)-2,6-dimethoxybenzyl)amino)methyl) pyrrolidin-2-one]",1 to 10 nM,> 2000 nM
"COc1cc(-n2ncc3c(-c4cccc(-c5ccc(CNC[C@@H]6CCC(=O)N6)c(OC)n5)c4Cl)cccc32)cc(OC)c1CN1CC(C)(C(=O)NC2CC2)C1 [Example 88, (S)-1-(4-(4-(2-chloro-3-(6-methoxy-5-((((5-oxopyrrolidin-2-yl)methyl)amino)methyl)pyridin-2-yl)phenyl)-1H-indazol-1-yl)-2,6-dimethoxybenzyl)-N-cyclopropyl-3-methylazetidine-3-carboxamide]",1 to 10 nM,201 to 2000 nM
"COc1cc(-n2ncc3c(-c4cccc(-c5ccc(CN6CC7(CNC(=O)C7)C6)c(OC)n5)c4Cl)cccc32)cc(OC)c1CN1CC2(CNC(=O)C2)C1 [Example 90, 2-(4-(4-(2-chloro-3-(6-methoxy-5-((7-oxo-2,6-diazaspiro[3.4]octan-2-yl)methyl)pyridin-2-yl)phenyl)-1H-indazol-1-yl)-2,6-dimethoxybenzyl)-2,6-diazaspiro[3.4]octan-7-one]",1 to 10 nM,201 to 2000 nM
"COc1cc(-n2ncc3c(-c4cccc(-c5ccc(CN6CC7(CNC(=O)C7)C6)c(OC)n5)c4Cl)cccc32)cc(OC)c1CNC[C@H]1C[C@@H](O)C1 [Example 91, 2-((6-(2-chloro-3-(1-(4-(((((cis)-3-hydroxycyclobutyl)methyl)amino)methyl)-3,5-dimethoxyphenyl)-1H-indazol-4-yl)phenyl)-2-methoxypyridin-3-yl)methyl)-2,6-diazaspiro[3.4]octan-7-one]",1 to 10 nM,201 to 2000 nM
"COc1cc(-n2ncc3c(-c4cccc(-c5ccc(CN6CC(C)(C(=O)NC7CC7)C6)c(OC)n5)c4Cl)cccc32)cc(OC)c1CNC[C@@H]1CCC(=O)N1 [Example 92, (S)-1-((6-(2-chloro-3-(1-(3,5-dimethoxy-4-((((5-oxopyrrolidin-2-yl)methyl)amino)methyl)phenyl)-1H-indazol-4-yl)phenyl)-2-methoxypyridin-3-yl)methyl)-N-cyclopropyl-3-methylazetidine-3-carboxamide]",< 1 nM,< 200 nM
"COc1cc(-c2cn(C)c3c(-c4cccc(-c5ccc(CNC[C@@H]6CCC(=O)N6)c(OC)n5)c4Cl)cccc23)cc(OC)c1CNC[C@@H]1CCC(=O)N1 [Example 93, (S)-5-((((6-(2-chloro-3-(3-(3,5-dimethoxy-4-(((((S)-5-oxopyrrolidin-2-yl)methyl)amino)methyl)phenyl)-1-methyl-1H-indol-7-yl)phenyl)-2-methoxypyridin-3-yl)methyl)amino)methyl)pyrrolidin-2-one]",1 to 10 nM,> 2000 nM
"COc1cc(-n2ncc3c(-c4cccc(-c5ccc(CN6CC(C)(C(=O)NC7CC7)C6)c(OC)n5)c4Cl)cccc32)cc(OC)c1CNC[C@H]1C[C@@H](O)C1 [Example 95, 1-((6-(2-chloro-3-(1-(4-((((cis-3-hydroxycyclobutyl)methyl)amino)methyl)-3,5-dimethoxyphenyl)-1H-indazol-4-yl)phenyl)-2-methoxypyridin-3-yl)methyl)-N-cyclopropyl-3-methylazetidine-3-carboxamide]",1 to 10 nM,201 to 2000 nM
